{"source": "patent US20080090848A1", "about": "“Substituted Purinyl Derivatives With Immunomodulator And Chemoprotective Activity And Use Alone Or With Medium-Chain Length Fatty Acids Or Glycerides” (priority 2004, published 2008)", "key": {"[1]": {"test_system": "bone marrow progenitor cell", "experiment": "Bone marrow progenitor cells (CFU-GEMM) after tricaprin, compound I or both in CY-treated mice (Example 3)", "type": "in vivo, C57BL/6 mice", "conditions": "tricaprin 60.5 mM oral and/or compound I 50 mg/kg", "description": "(§1) Female C57BL/6 mice, 6 to 8 weeks old, were immunosuppressed by treatment with 200 mg/kg of cyclophosphamide (CY) administered intravenously at day 0. To examine the chemoprotective effect of compound I, mice were pre-treated intraperitoneally at day −3, −2 and −1 with 50 mg/kg of the compound. Mice were sacrificed at day +5 by cardiac puncture and cervical dislocation. Then, cell suspensions were prepared from thymus, spleen and bone marrow as follows.\n(§2) The effect of tricaprin, compound I, and the combination of both compounds on in vivo induction of hematopoietic cell proliferation or protection was determined following the protocol described in Example 1. Oral administration of tricaprin (60.5 mM) and/or peritoneal injection of compound I were performed on day −3, −2 and −1."}, "[2]": {"test_system": "bone marrow red cells", "experiment": "Chemoprotection: combination of tricaprin and compound I in CY-treated mice, bone marrow red cell count (Example 3)", "type": "in vivo, C57BL/6 mice", "conditions": "tricaprin 60.5 mM oral and/or compound I 50 mg/kg peritoneal injection, day −3, −2, −1", "description": "as §1\n(§3) Tissues were crushed in PBS buffer and contaminating erythrocytes were lysed in ACK buffer (155 mM NH4Cl, 12 mM NaHCO3, 0.1 mM EDTA, pH 7.3) for five minutes. Cells were then collected by centrifugation and washed three times in PBS and resuspended in tissue culture medium. Cells were counted with a Coulter counter.\nas §2"}, "[3]": {"test_system": "hematopoietic cells", "experiment": "Chemoprotection: in vivo protection of hematopoietic cells by compound II in CY-treated mice (Example 4)", "parameters": "species or system C57BL/6 mice", "description": "as §1, §3\nThe effect of compound II on in vivo induction of hematopoietic cell proliferation or protection was determined following the protocol described in Example 1. Oral administration of compound II (50 mg/kg or 100 mg/kg) was performed on day −3, −2 and −1."}, "[4]": {"test_system": "hematopoietic cells", "experiment": "Chemoprotection: in vivo protection of hematopoietic cells by compound I in CY-immunosuppressed mice (Example 1)", "parameters": "species or system C57BL/6 mice", "conditions": "for Cell count, peripheral blood white cells / Cell count, spleen red cells / Cell count, spleen white cells: CY 200 mg/kg i.v. day 0, compound I 50 mg/kg i.p. day −3, −2, −1, sacrifice day +5", "description": "as §1, §3"}, "[5]": {"conditions": "rat, in vivo, po; cited from earlier work"}, "[6]": {"conditions": "cited from earlier work"}, "[7]": {"test_system": "CTLs", "conditions": "compared with interleukin 2; cited from earlier work"}, "[8]": {"test_system": "hematopoietic cells", "experiment": "Chemoprotection: combination of histamine dihydrochloride and compound I in CY-treated mice (Example 6)", "type": "in vivo, C57BL/6 mice", "conditions": "for Effect on bone marrow white cell count (FIG. 5): intravenous histamine dihydrochloride 25 mg/kg and/or compound I 5 mg/kg, day −3, −2, −1, CY-treated mice, compared to CY", "description": "(§4) Mice were sacrificed at day +5 by cardiac puncture and cervical dislocation. Then, cell suspensions were prepared from thymus, spleen and bone marrow as follows. Tissues were crushed in PBS buffer and contaminating erythrocytes were lysed in ACK buffer (155 mM NH4Cl, 12 mM NaHCO3, 0.1 mM EDTA, pH 7.3) for five minutes. Cells were then collected by centrifugation and washed three times in PBS and resuspended in tissue culture medium. Cells were counted with a Coulter counter. Effect of low dose of histamine, compound I, and the combination of both compounds on in vivo induction of hematopoietic cell proliferation or protection was undertaken following the protocol described in Example 1."}, "[9]": {"test_system": "hematopoietic cells", "experiment": "Chemoprotection: combination of sodium caprate and compound I in CY-treated mice (Example 2)", "type": "in vivo, C57BL/6 mice", "conditions": "for Effect on bone marrow red cell count (FIG. 2) / Effect on bone marrow white cell count (FIG. 3): low dose, intravenous: sodium caprate 1.21 mM, compound I 5 mg/kg, sodium caprate or compound I used alone; for Effect on peripheral red blood cell count (FIG. 1): sodium caprate 60.5 mM oral and/or compound I 50 mg/kg i.p., day −3, −2, −1, versus respective CY control"}, "[10]": {"conditions": "i.v., rat; cited from earlier work"}, "[11]": {"test_system": "MC-38 colon cancer", "experiment": "Survival of mice with MC-38 colon cancer treated with a toxic regimen of 5-fluorouracil", "type": "in vivo", "conditions": "compound I plus toxic regimen of 5-fluorouracil versus 5-fluorouracil alone (e.g., 40 mg/kg)"}, "[12]": {"test_system": "hematopoietic cells", "experiment": "Chemoprotection: combination of histamine dihydrochloride and compound II in CY-treated mice (Example 7)", "type": "in vivo, C57BL/6 mice", "conditions": "histamine dihydrochloride 25 mg/kg i.v. and/or compound II 100 mg/kg oral, day −3, −2, −1, compared to CY", "description": "as §1, §3\nEffect of low dose of histamine, compound II, and the combination of both compounds on in vivo induction of hematopoietic cell proliferation or protection was undertaken following the protocol described in Example 1. Intravenous administration of histamine dihydrochloride (25 mg/kg) and oral administration of compound II (100 mg/kg) were performed on day −3, −2 and −1."}, "[13]": {"test_system": "hematopoietic cells", "experiment": "Chemoprotection: combination of sodium caprate and compound II in CY-treated mice (Example 5)", "type": "in vivo, C57BL/6 mice", "conditions": "oral sodium caprate 60.5 mM and/or compound II 50 mg/kg or 100 mg/kg, day −3, −2, −1", "description": "as §4, with “The effect” for “Effect”, “sodium caprate,” for “low dose of histamine,”, “II,” for “I,”, “determined” for “undertaken”"}, "[14]": {"conditions": "CY alone (200 mg/kg i.v. day 0)"}, "[15]": {"conditions": "pre-treatment 50 mg/kg i.p. in CY-treated mice, versus CY"}, "[16]": {"conditions": "CY + compound II 50 mg/kg oral, day −3, −2, −1"}, "[17]": {"conditions": "CY + compound II 100 mg/kg oral, day −3, −2, −1"}, "[18]": {"conditions": "oral pre-treatment in CY-treated mice, dose not given"}}, "note": "Where two headings read alike, the source gives them in different places.", "data": [{"smiles": "O=P1(N(CCCl)CCCl)NCCCO1", "note": "(stereo not shown) [CY, cyclophosphamide, reference compound]", "values": [{"measurement": "CFU-GEMM (colony number), bone marrow", "setting": "[1]", "value": 1, "unit": "colony number"}, {"measurement": "Bone marrow red cell count", "setting": "[2]", "value": "31.5 ± 3.5 10^6"}, {"measurement": "Cell count, bone marrow red cells", "setting": "[3]; [14]", "value": "31.6 ± 5.0 10^6"}, {"measurement": "Cell count, bone marrow white cells", "setting": "[3]; [14]", "value": "19.8 ± 4.4 10^6"}, {"measurement": "Cell count, peripheral blood white cells", "setting": "[4]", "value": "1.3 ± 0.6 10^6"}, {"measurement": "Cell count, spleen red cells", "setting": "[4]", "value": "341 ± 107 10^6"}, {"measurement": "Cell count, spleen white cells", "setting": "[4]", "value": "34. ± 9 10^6"}]}, {"smiles": "CCCCCCCCCC(=O)OCC(COC(=O)CCCCCCCCC)OC(=O)CCCCCCCCC", "note": "[Tricaprin, tricaprin]", "values": [{"measurement": "CFU-GEMM (colony number), bone marrow", "setting": "[1]", "value": 0.5, "unit": "colony number"}, {"measurement": "Bone marrow red cell count", "setting": "[2]", "value": "33.8 ± 3.7 10^6"}]}, {"smiles": "CCCCCCCC(=O)O", "note": "[caprylic acid]", "values": [{"measurement": "LD50", "setting": "[5]", "value": 10080, "unit": "mg/kg"}]}, {"smiles": "CN(C)c1ncnc2c1ncn2CCCCCOC(=O)NC(CCCNC(=N)N)C(=O)O", "note": "(stereo not drawn) [compound I, [[5-[6-(N,N-dimethylamino)purin-9-yl]pentoxy]-carbonyl]d-arginine]", "values": [{"measurement": "CFU-GEMM (colony number), bone marrow", "setting": "[1]", "value": 1, "unit": "colony number"}, {"measurement": "In vivo antitumor activity", "setting": "[6]", "value": "significant in vivo antitumor activity"}, {"measurement": "Bone marrow red cell count", "setting": "[2]", "value": "37.4 ± 7.1 10^6"}, {"measurement": "In vitro stimulation of CTLs", "setting": "[7]", "value": "comparable to the immune growth factor or cytokine interleukin 2"}, {"measurement": "Effect on bone marrow white cell count (FIG. 5)", "setting": "[8]", "value": "No significant effect"}, {"measurement": "Effect on bone marrow red cell count (FIG. 2)", "setting": "[9]", "value": "No effect"}, {"measurement": "Effect on bone marrow white cell count (FIG. 3)", "setting": "[9]", "value": "No effect"}, {"measurement": "Effect on peripheral red blood cell count (FIG. 1)", "setting": "[9]", "value": "significant increase"}, {"measurement": "LD50", "setting": "[10]", "value": "more than 500 mg/kg"}, {"measurement": "Cell count, peripheral blood white cells", "setting": "[4]", "value": "2.6 ± 0.6 10^6"}, {"measurement": "Cell count, spleen red cells", "setting": "[4]", "value": "468 ± 104 10^6"}, {"measurement": "Cell count, spleen white cells", "setting": "[4]", "value": "48 ± 5 10^6"}, {"measurement": "Spleen red cell count compared to non-immunosuppressed animals (control)", "setting": "[4]; pre-treatment 50 mg/kg i.p. in CY-treated mice", "value": "some treated animals returned to a “baseline level”"}, {"measurement": "Effect on peripheral white blood cell count (in words)", "setting": "[4]; [15]", "value": "significant increase"}, {"measurement": "Effect on spleen red cell count (in words)", "setting": "[4]; [15]", "value": "significant increase"}, {"measurement": "Effect on spleen white cell count (in words)", "setting": "[4]; [15]", "value": "significant increase"}, {"measurement": "Survival of animals", "setting": "[11]", "value": "improved survival"}]}, {"smiles": "CN(C)c1ncnc2c1ncn2CCCCCO", "note": "[compound II]", "values": [{"measurement": "Cell count, bone marrow red cells", "setting": "[3]; [16]", "value": "29.4 ± 2.7 10^6"}, {"measurement": "Cell count, bone marrow white cells", "setting": "[3]; [16]", "value": "17.4 ± 3.5 10^6"}, {"measurement": "Cell count, bone marrow red cells", "setting": "[3]; [17]", "value": "43.9 ± 16.3 10^6"}, {"measurement": "Cell count, bone marrow white cells", "setting": "[3]; [17]", "value": "30.5 ± 9.4 10^6"}, {"measurement": "Bone marrow red and white cell counts compared to non-immunosuppressed animals (control)", "setting": "[3]; oral pre-treatment in CY-treated mice", "value": "some treated animals return to a “baseline level”"}, {"measurement": "Effect on bone marrow red cell count (in words)", "setting": "[3]; [18]", "value": "significant increase"}, {"measurement": "Effect on bone marrow white cell count (in words)", "setting": "[3]; [18]", "value": "significant increase"}, {"measurement": "Effect on spleen white cell count (FIG. 7)", "setting": "[12]", "value": "No significant effect"}]}, {"smiles": "Cl.Cl.NCCc1c[nH]cn1", "note": "[histamine, histamine dihydrochloride]", "values": [{"measurement": "Stimulation of hematopoiesis", "setting": "[8]; histamine alone, general statement", "value": "weakly stimulate hematopoiesis"}, {"measurement": "Effect on bone marrow white cell count (FIG. 5)", "setting": "[8]", "value": "No significant effect"}, {"measurement": "Effect on spleen white cell count (FIG. 7)", "setting": "[12]", "value": "No significant effect"}]}, {"smiles": "c1ccc([C@H]2CN3CCSC3=N2)cc1", "note": "[levamisole, reference compound]", "values": [{"measurement": "LD50", "setting": "[10]", "value": 16, "unit": "mg/kg"}]}, {"smiles": "CCCCCCCCCC(=O)[O-].[Na+]", "note": "[sodium caprate]", "values": [{"measurement": "Effect on bone marrow red cell count (FIG. 2)", "setting": "[9]", "value": "No effect"}, {"measurement": "Effect on bone marrow white cell count (FIG. 3)", "setting": "[9]", "value": "No effect"}, {"measurement": "Effect on peripheral red blood cell count (FIG. 1)", "setting": "[9]", "value": "significant increase"}, {"measurement": "Effect on peripheral red blood cell count (FIG. 4)", "setting": "[13]", "value": "weak increase"}]}]}
